From patent US5874235A, “Screening assays for cancer chemopreventative agents” (The Johns Hopkins University, priority 1997, dated 1999)
Read-outs that look alike come from different tables or passages of the source.

Experiments:
Format in all cases: cell-based, human
SW480 cells [1] = assay: Phosphatidylserine exposure by merocyanine staining; conditions: 200 μM SUS, 50 hours
Protocol: (§1) Phosphatidylserine exposure was assessed by merocyanine staining as previously described (31). Forty-eight hours after treatment with 125 μM SUS, 44% of HCT116 stained with merocyanine versus 4% in the vehicle-treated control cells. Likewise, 74% of SW480 cells stained with merocyanine 50 hours after treatment with 200 μM SUS versus 1.5% of the vehicle-treated control cells.

HCT116 cells [2] = assay: as above; conditions: 125 μM SUS, 48 hours
Protocol: as §1

SW480 cells [3] = assay: Ceramide levels, E. coli diacylglycerol (DAG) kinase assay
Protocol: (§2) Cells were harvested and ceramide was quantified. The first lane of each panel corresponds to a ceramide standard (ceramide type III, Sigma). […] HCT116 and SW480 cells were treated with SUS or INDO as indicated. Ceramide levels were determined as described above. […] Control cells were treated with DMSO vehicle only. Cells were harvested at the indicated times following treatment and ceramide levels were determined as described above. The data are plotted as the mean of at least two experiments with the error bars corresponding to the standard deviation.
(§3) Ceramide levels were measured using the Escherichia coli diacylglycerol (DAG) kinase assay as previously described (30) with the following modifications. After the initial lipid extraction, phases were broken by adding 2 ml chloroform and 2 ml 1M NaCl and lipids were washed with 1M NaCl prior to drying under nitrogen (32, 33). After solubilization, samples were sonicated for 15 seconds. The DAG reaction was performed for 30 minutes at 25° C. in a 100 μl reaction volume with 3.5 μg DAG kinase (Calbiochem) and […] γ^32 P-ATP (Dupont NEN, 6000 Ci/mmol). After extraction of the labeled lipids, the lower chloroform phase was washed with 1% HCl prior to drying under nitrogen. The solvent mixture for thin layer chromatography was chloroform:acetone:methanol:acetic acid:water (10:4:3:2:1). Samples were quantitated using a Phosphorimager (Molecular Dynamics).

HCT116 cells [4] = assay: as above
Protocol: as §2, §3

HCT116 cells [5] = assay: Arachidonic acid levels, release of 3H-AA into the media; conditions: for fold induction at 50 µM: 50 μM SUS, read-out: arachidonic acid levels relative to control; for increase in arachidonic acid: apoptosis-inducing doses of SUS
Protocol: (§4) FIGS. 4A, 4B, 4C, 4D, 4E and 4F. The role of arachidonic acid in NSAID-mediated apoptosis. […] HCT116 and SW480 cells were treated with the indicated concentrations of SUS or INDO. Arachidonic acid (AA) levels were determined by measuring release of ^3 H-AA into the media as previously described (18). Data are indicated as the mean of three replicates with the error bars corresponding to the standard deviation. In addition, the nature of the released radiolabeled material was evaluated by thin layer chromatography as previously described (28). […] HCT116 and SW480 cells were incubated with ^3 H-choline chloride (0.5 mCi ml^-1, 80 Ci mmol^-1, New England Nuclear) for 48 hours. After labeling, cells were washed with HBSS (Gibco) and treated with SUS or INDO for the indicated times. Sphingomyelin measurements were performed using the bacterial sphingomyelinase method as previously described (18). Sphingomyelin levels at each time point are plotted as a percentage of that in untreated control cells. For each point, the mean of at least two independent experiments is presented with the error bars corresponding to the standard deviations. […] SW480 cells were treated with 200 μM arachidonic acid (AA), SUS (SUS) or behenic acid as a control fatty acid (FA) as indicated. […] SW480 cells were treated with suboptimal doses (100 μM) of arachidonic acid (AA), SUS (SUS), or both (AA+SUS) as indicated. After 48 hours of treatment, apoptosis and ceramide increases were assessed as described for FIGS. 1 and 3, respectively. Ceramide increases (left axis) were expressed as fold increases relative to untreated cells. Apoptosis (right axis) was expressed as percent apoptotic cells minus percent apoptotic cells in untreated cells (5.6%+/-2.4). Data are indicated as the mean of duplicates with the error bars corresponding to the standard deviation.
(§5) Arachidonic acid is known to stimulate neutral sphingomyelinase (18), which catalyzes the conversion of sphingomyelin to ceramide. We therefore considered the possibility that inhibition of COX activity might lead to increases in arachidonic acid, the substrate for COX. To test this hypothesis, we first determined whether SUS stimulated arachidonic acid accumulation. In both SW480 and HCT 116 cells, apoptosis-inducing doses of SUS increased arachidonic acid by 2 to 3 fold at 24 hours and by approximately 5 fold at 48 hours (FIGS. 4A and 4B). The arachidonic acid increase following SUS treatment was as great as that following treatment with mellitin, a known activator of phospholipase A2. Arachidonic acid levels in HCT116 cells increased 3.5 fold one hour after treatment with 1 μM mellitin. Likewise, arachidonic acid levels increased 2.9 fold in SW480 cells one hour after mellitin treatment. Arachidonic acid (AA) levels were determined by measuring release of ^3 H-AA into the media as previously described (18). The nature of released radiolabeled material was evaluated by thin layer chromatography analysis as previously described (28).

HCT116 cells [6] = test system: HCT116 cells
Protocol: FIGS. 1A, 1B and 1C NSAID induce apoptosis in human colorectal cancer cells. In FIG. […] Cells were collected at the indicated times, fixed and stained with Hoechst 33258 (23). The cells were counted and those with fragmented nuclei were scored as apoptotic. In FIG. 1B, HCT116 and SW480 cells were treated with SUS or INDO for 60 hours, harvested and stained as described above. Cells treated with SUS or INDO show the hallmarks of apoptosis.
This death appeared to be apoptotic, as it was accompanied by nuclear condensation and fragmentation (FIG. 1B) and exposure of phosphatidylserine groups on the cell surface, two hallmarks of apoptosis (11, 12).

SW480 cells [7] = assay: cells; conditions: for increase in arachidonic acid: apoptosis-inducing doses of SUS
Protocol: as §4, §5

[8] = 8 hours post-treatment, before morphologic features of apoptosis

CSc1ccc(/C=C2/C(C)=C(CC(=O)O)c3cc(F)ccc32)cc1 [SUS, sulindac sulfide]
cells stained with merocyanine (SW480 cells [1]): 74% | cells stained with merocyanine (HCT116 cells [2]): 44% | ceramide levels early after treatment (SW480 cells [3]; [8]): increased to substantial levels | fold induction at 200 µM (SW480 cells [3]; Homo sapiens, SW480, SUS 200 μM, with or without 10 μM CHX, 48 hours, read-out: fold increase in ceramide levels relative to vehicle controls): 9.2 ± 0.1 | magnitude of the ceramide increase (SW480 cells [3]; SUS): 10 fold | ceramide induction (SW480 cells [3]; SUS 50 μM): did not induce ceramide | ceramide induction (SW480 cells [3]; SUS 100 μM): not at 100 μM | ceramide induction (SW480 cells [3]; SUS 200 μM): induced both ceramide and cell death | time of maximum ceramide induction (SW480 cells [3]; SUS 200 μM): 24 to 48 h | effect on ceramide levels (SW480 cells [3]; suboptimal doses, 100 μM each, separately or together, 48 hours): little effect on ceramide levels | ceramide levels early after treatment (HCT116 cells [4]; [8]): increased to substantial levels | fold induction at 125 µM (HCT116 cells [4]; Homo sapiens, HCT-116, SUS 125 μM, with or without 10 μM CHX, 48 hours, read-out: fold increase in ceramide levels relative to vehicle controls): 10 ± 0.4 | ceramide induction (HCT116 cells [4]; SUS 50 μM): induced neither | ceramide induction (HCT116 cells [4]; SUS 125 μM): induced both cell death and ceramide | time of maximum ceramide induction (HCT116 cells [4]; SUS 125 μM): 24 to 48 h | fold induction at 50 µM (HCT116 cells [5]; Homo sapiens, HCT-116, 8 hours): 0.9 | fold induction at 50 µM (HCT116 cells [5]; Homo sapiens, HCT-116, 16 hours): 1.05 | fold induction at 50 µM (HCT116 cells [5]; Homo sapiens, HCT-116, 24 hours): 1.14 | fold induction at 200 µM (HCT116 cells [5]; Homo sapiens, HCT-116, 200 μM SUS, 16 hours, read-out: increase in arachidonic acid): 5.1 | increase in arachidonic acid (HCT116 cells [5]; 24 hours): 2 to 3 fold | increase in arachidonic acid (HCT116 cells [5]; 48 hours): approximately 5 fold | apoptosis (HCT116 cells [6]; 200 μM SUS, 16 hours): the majority of cells had not yet undergone apoptosis | cell death (HCT116 cells [6]; SUS 50 μM): induced neither | apoptosis (HCT116 cells [6]; SUS 125 μM, with or without 10 μM CHX, 48 hours): underwent apoptosis | fold induction at 200 µM (SW480 cells [7]; Homo sapiens, SW480, 200 μM SUS, 16 hours, read-out: increase in arachidonic acid): 3.4 | increase in arachidonic acid (SW480 cells [7]; 24 hours): 2 to 3 fold | increase in arachidonic acid (SW480 cells [7]; 48 hours): approximately 5 fold
